Laboratory results as given in US20260297060A1, “COMPOUNDS FOR THE DEGRADATION OF MUTANT BRAF” (C4 THERAPEUTICS, INC., priority 2023, published 2026).
Like-named read-outs stand apart in the source and are kept apart here.

Legend:
BRAF V600E = target: T1, BRAF V600E (Homo sapiens, UniProt P15056+Q96SW2, V600E); experiment: BRAF V600E HiBiT Degradation Assay; assay type: cell-based
T1 construct: knock-in of the HiBiT tag to the endogenous BRAF V600E locus; host or cells: A375.10 (A375 clonal line, CRISPR HiBiT knock-in at the endogenous BRAF V600E locus)
How it was run: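 Endogenous HiBiT knock-in on BRAF V600E in A375 cells (clone A375.10); 11-point half-log series, top 10 μM, 2, 6 or 24 h at 37° C. Lytic HiBiT luminescence, background-subtracted, normalized to DMSO; 4-parameter fit gives DC50, Emax (residual protein) and IP (inflection point).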

A375-NRAS^Q61K cells = experiment: CTGlo Cell Viability Assay, A375-NRAS^Q61K (A375.11) cells, 96 hours; assay type: cell-based, human; settings: A375.11 (A375-NRAS^Q61K) cells; for Emax / CTGlo A375.11 96 hours Emax: lowest % viability achieved
How it was run: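 A375 cells carrying BRAF V600E and NRAS Q61K were seeded at 250 cells/well with a 10-point half-log dose series (max 10 μM final). After 96 h at 37 °C, viability was read as ATP luminescence (CellTiter-Glo), background-subtracted and normalized to DMSO (100%). GI50 from 4-parameter fit; Emax is the lowest % viability.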

[1] = A375.10 cells, BRAF V600E, 2 hours, inflection point, read-out: HiBiT-Degradation A375.10 BRAF 2 hours IP
[2] = A375.10 cells, BRAF V600E, 2 hours, read-out: HiBiT-Degradation A375.10 BRAF 2 hours DC50
[3] = A375.10 cells, BRAF V600E, 2 hours, residual protein remaining, read-out: HiBiT-Degradation A375.10 BRAF 2 hours Emax
[4] = A375.10 cells, BRAF V600E, 2 hours, residual protein remaining
[5] = A375.10 cells, HiBiT, BRAF V600E, 24 hours, read-out: HiBiT-Degradation A375.10 BRAF 24 hours DC50
[6] = A375.10 cells, HiBiT, BRAF V600E, 24 hours, read-out: HiBiT-Degradation A375.10 BRAF 24 hours IP
[7] = A375.10 cells, HiBiT, BRAF V600E, 24 hours

T1 sequence (P15056 whole entry V600E): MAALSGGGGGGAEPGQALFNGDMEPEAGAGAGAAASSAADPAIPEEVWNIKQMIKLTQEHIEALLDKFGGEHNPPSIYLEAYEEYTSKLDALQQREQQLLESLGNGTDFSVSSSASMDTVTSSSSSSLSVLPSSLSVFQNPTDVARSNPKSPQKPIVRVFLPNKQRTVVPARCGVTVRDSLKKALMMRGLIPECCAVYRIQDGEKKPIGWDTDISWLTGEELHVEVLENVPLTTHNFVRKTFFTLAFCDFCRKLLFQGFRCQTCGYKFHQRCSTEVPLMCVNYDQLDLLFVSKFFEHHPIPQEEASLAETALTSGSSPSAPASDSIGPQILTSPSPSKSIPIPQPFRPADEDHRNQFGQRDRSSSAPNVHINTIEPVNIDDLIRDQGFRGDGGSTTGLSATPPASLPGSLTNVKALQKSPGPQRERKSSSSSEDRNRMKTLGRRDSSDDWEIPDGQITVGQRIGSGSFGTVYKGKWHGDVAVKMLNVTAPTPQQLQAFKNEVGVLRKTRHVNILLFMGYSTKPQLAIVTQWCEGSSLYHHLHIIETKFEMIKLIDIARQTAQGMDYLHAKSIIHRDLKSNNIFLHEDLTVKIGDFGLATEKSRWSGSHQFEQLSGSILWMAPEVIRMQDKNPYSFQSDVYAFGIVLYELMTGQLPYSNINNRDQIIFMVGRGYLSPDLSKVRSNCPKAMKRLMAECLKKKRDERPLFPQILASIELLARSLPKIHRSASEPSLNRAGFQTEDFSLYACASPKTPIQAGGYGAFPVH
T1 sequence (Q96SW2 whole entry): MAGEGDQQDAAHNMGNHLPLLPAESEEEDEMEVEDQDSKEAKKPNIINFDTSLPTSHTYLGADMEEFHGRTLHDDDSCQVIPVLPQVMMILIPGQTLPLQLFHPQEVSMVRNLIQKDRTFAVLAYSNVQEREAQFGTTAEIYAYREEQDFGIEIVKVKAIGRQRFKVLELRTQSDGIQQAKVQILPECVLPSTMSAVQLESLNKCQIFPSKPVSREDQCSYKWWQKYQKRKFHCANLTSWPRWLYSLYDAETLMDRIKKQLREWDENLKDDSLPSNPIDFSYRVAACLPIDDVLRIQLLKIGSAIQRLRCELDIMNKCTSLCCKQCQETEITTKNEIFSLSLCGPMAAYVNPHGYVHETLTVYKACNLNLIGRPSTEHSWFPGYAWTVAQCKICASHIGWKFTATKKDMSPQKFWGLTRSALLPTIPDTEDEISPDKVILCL
T1 sequence (Q16531 whole entry partner): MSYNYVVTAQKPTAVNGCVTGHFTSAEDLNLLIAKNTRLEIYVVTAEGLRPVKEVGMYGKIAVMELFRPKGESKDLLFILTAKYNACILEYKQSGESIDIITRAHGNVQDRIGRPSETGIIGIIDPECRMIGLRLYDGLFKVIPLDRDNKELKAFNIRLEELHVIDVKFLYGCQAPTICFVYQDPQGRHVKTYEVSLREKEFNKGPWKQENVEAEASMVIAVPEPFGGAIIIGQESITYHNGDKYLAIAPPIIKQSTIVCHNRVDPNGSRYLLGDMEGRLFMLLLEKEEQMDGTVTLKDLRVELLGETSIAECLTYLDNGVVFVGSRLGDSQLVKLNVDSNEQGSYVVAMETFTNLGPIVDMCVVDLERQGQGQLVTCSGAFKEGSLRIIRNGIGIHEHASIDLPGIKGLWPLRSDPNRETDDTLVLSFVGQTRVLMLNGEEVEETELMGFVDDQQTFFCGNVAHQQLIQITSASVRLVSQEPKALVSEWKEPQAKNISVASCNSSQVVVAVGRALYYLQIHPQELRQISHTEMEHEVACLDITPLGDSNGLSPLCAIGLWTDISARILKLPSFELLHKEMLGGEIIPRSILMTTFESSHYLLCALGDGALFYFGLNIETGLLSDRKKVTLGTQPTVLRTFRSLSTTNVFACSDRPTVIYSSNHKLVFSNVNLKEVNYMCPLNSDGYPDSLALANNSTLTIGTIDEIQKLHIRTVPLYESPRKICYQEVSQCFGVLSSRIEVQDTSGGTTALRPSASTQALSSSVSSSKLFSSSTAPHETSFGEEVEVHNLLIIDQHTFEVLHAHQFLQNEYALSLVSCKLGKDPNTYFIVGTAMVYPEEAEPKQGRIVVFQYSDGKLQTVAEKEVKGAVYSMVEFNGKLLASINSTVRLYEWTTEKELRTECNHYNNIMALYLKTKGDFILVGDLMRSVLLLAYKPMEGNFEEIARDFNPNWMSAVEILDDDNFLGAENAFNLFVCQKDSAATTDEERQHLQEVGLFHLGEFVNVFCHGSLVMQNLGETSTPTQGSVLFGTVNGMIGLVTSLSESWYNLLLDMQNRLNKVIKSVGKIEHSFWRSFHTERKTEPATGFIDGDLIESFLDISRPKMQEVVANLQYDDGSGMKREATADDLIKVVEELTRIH

SMILES	DC50 (BRAF V600E; [1]) [nM]	DC50 (BRAF V600E; [2]) [nM]	Emax (BRAF V600E; [3]) [%]	GI50 (A375-NRAS^Q61K cells; Homo sapiens, 96 h) [nM]	Emax (A375-NRAS^Q61K cells; Homo sapiens, 96 h) [%]	GI50 (A375-NRAS^Q61K cells) [nM]	CTGlo A375.11 96 hours Emax (A375-NRAS^Q61K cells)	HiBiT-Degradation A375.10 BRAF 2 hours Emax (BRAF V600E; [4])	further results
CCN(C)S(=O)(=O)Nc1ccc(F)c(Oc2ccc3ncn(CC4CCN(C5CC6(C5)CN(c5cc7c(cc5F)c(N5CCC(=O)NC5=O)nn7C)C6)CC4)c(=O)c3c2)c1C#N [Compound 258, 6-[2-cyano-3-[[ethyl(methyl)sulfamoyl]amino]-6-fluoro-phenoxy]-3-[[1-[2-[3-(2,4-dioxohexahydropyrimidin-1-yl)-5-fluoro-1-methyl-indazol-6-yl]-2-azaspiro[3.3]heptan-6-yl]-4-piperidyl]methyl]-4-oxo-quinazoline]	< 1000	1000 to 10000	50 to 90	> 10000	50 to 90	–	–	–	–
CCN(C)S(=O)(=O)Nc1ccc(F)c(Oc2ccc3ncn([C@H]4COC5(CCC(N6CC7(CN(c8ccc(NC9CCC(=O)NC9=O)cc8F)C7)C6)CC5)C4)c(=O)c3c2)c1C#N (single isomer, unassigned) [Compound 192]	< 1000	< 1000	–	–	–	> 10000	*** (<=50%)	–	HiBiT-Degradation A375.10 BRAF 2 hours Emax (BRAF V600E): ** (<90% and >50%)
CCN(C)S(=O)(=O)Nc1ccc(F)c(C(=O)c2ccc3ncn(C4CC5(CCN(C6CCC(c7ccc(NC8CCC(=O)NC8=O)cc7F)CC6)CC5)C4)c(=O)c3c2)c1F (single isomer, unassigned) [Compound 200, 3-[7-[4-[4-[(2,6-dioxo-3-piperidyl)amino]-2-fluoro-phenyl]cyclohexyl]-7-azaspiro[3.5]nonan-2-yl]-6-[3-[[ethyl(methyl)sulfamoyl]amino]-2,6-difluoro-benzoyl]-4-oxo-quinazoline]	< 1000	< 1000	–	–	–	1000 to 10000	** (<90% and >50%)	*** (<=50%)	–
CCN(C)S(=O)(=O)Nc1ccc(F)c(Oc2ccc3ncn([C@H]4C[C@@H]5CN(C6CCC(c7cc8c(cc7F)c(N7CCC(=O)NC7=O)nn8C)CC6)C[C@@H]5C4)c(=O)c3c2)c1C#N (single isomer, unassigned) [Compound 15]	< 1000	< 1000	50 to 90	> 10000	50 to 90	–	–	–	–
CCN(C)S(=O)(=O)Nc1ccc(F)c(Oc2ccc3ncn(C4CC5(C4)CN(C4CCC(c6cc7c(cc6F)c(N6CCC(=O)NC6=O)nn7C)CC4F)C5)c(=O)c3c2)c1C#N (single isomer, unassigned) [Compound 299]	< 1000	1000 to 10000	–	1000 to 10000	50 to 90	–	–	–	DC50 (BRAF V600E; [5]): < 1000 nM; Emax (BRAF V600E; A375.10 cells, HiBiT, BRAF V600E, 24 hours, read-out: HiBiT-Degradation A375.10 BRAF 24 hours Emax): < 50%; DC50 (BRAF V600E; [6]): < 1000 nM; Emax (BRAF V600E; read-out: HiBiT-Degradation A375.10 BRAF 2 hours Emax, A375.10 cells, BRAF V600E, 2 hours, residual protein remaining): 50 to 90%
CCN(C)S(=O)(=O)Nc1ccc(F)c(Oc2ccc3ncc(C4CC5(C4)CN(C4CCC(c6cc7c(cc6F)c(N6CCC(=O)NC6=O)nn7C)CC4)C5)nc3c2)c1C#N (single isomer, unassigned) [Compound 298, 7-[2-cyano-3-[[ethyl(methyl)sulfamoyl]amino]-6-fluoro-phenoxy]-2-[2-[4-[3-(2,4-dioxohexahydropyrimidin-1-yl)-5-fluoro-1-methyl-indazol-6-yl]cyclohexyl]-2-azaspiro[3.3]heptan-6-yl]quinoxaline]	< 1000	< 1000	–	–	–	< 1000	*** (<=50%)	*** (<=50%)	HiBiT-Degradation A375.10 BRAF 24 hours Emax (BRAF V600E; [7]): *** (<=50%); DC50 (BRAF V600E; [5]): < 1000 nM; DC50 (BRAF V600E; [6]): < 1000 nM
CN(CCO)S(=O)(=O)Nc1ccc(F)c(Oc2ccc3ncn([C@H]4COC5(CCC(N6CCC(c7cc8c(cc7F)c(N7CCC(=O)NC7=O)nn8C)C(F)(F)C6)CC5)C4)c(=O)c3c2)c1C#N (single isomer, unassigned) [Compound 214]	< 1000	< 1000	–	–	–	< 1000	*** (<=50%)	*** (<=50%)	–
CCN(C)S(=O)(=O)Nc1ccc(F)c(Oc2ccc3ncn(C4CC5(CCN(C6CC7(C6)CN(c6ccc(NC8CCC(=O)NC8=O)cc6F)C7)CC5)C4)c(=O)c3c2)c1F (stereo not drawn) [Compound 188, 3-[7-[2-[4-[(2,6-dioxo-3-piperidyl)amino]-2-fluoro-phenyl]-2-azaspiro[3.3]heptan-6-yl]-7-azaspiro[3.5]nonan-2-yl]-6-[3-[[ethyl(methyl)sulfamoyl]amino]-2,6-difluoro-phenoxy]-4-oxo-quinazoline]	< 1000	< 1000	50 to 90	> 10000	50 to 90	–	–	–	–
CC(C)S(=O)(=O)Nc1ccc(F)c(Oc2ccc3ncc(C4CC5(CCN(C6CCC(c7cc8c(cc7F)c(N7CCC(=O)NC7=O)nn8C)CC6)CC5)C4)nc3c2)c1C#N (single isomer, unassigned) [Compound 249, N-[2-cyano-3-[3-[7-[4-[3-(2,4-dioxohexahydropyrimidin-1-yl)-5-fluoro-1-methyl-indazol-6-yl]cyclohexyl]-7-azaspiro[3.5]nonan-2-yl]quinoxalin-6-yl]oxy-4-fluoro-phenyl]propane-2-sulfonamide]	< 1000	< 1000	–	–	–	< 1000	** (<90% and >50%)	*** (<=50%)	–
CO[C@@H]1CCN(S(=O)(=O)Nc2ccc(F)c(Oc3ccc4ncc(C5CC6(CCN(C7CC8(C7)CN(c7cc9c(cc7F)c(N7CCC(=O)NC7=O)nn9C)C8)CC6)C5)nc4c3)c2C#N)C1 (stereo partly drawn) [Compound 278, (3R)-N-[2-cyano-3-[3-[7-[2-[3-(2,4-dioxohexahydropyrimidin-1-yl)-5-fluoro-1-methyl-indazol-6-yl]-2-azaspiro[3.3]heptan-6-yl]-7-azaspiro[3.5]nonan-2-yl]quinoxalin-6-yl]oxy-4-fluoro-phenyl]-3-methoxy-pyrrolidine-1-sulfonamide]	–	–	< 50	< 1000	< 50	–	–	–	DC50 (BRAF V600E; read-out: HiBiT-Degradation A375.10 BRAF 2 hours DC50, A375.10 cells, BRAF V600E, 2 hours): < 1000 nM; DC50 (BRAF V600E; read-out: HiBiT-Degradation A375.10 BRAF 2 hours IP, A375.10 cells, BRAF V600E, 2 hours, inflection point): < 1000 nM
CCN(C)S(=O)(=O)Nc1ccc(F)c(Oc2ccc3ncn(C4CC5(CCN(C6CCC(c7cc8c(cc7F)c(N7CCC(=O)NC7=O)nn8C)CC6F)CC5)C4)c(=O)c3c2)c1C#N (single isomer, unassigned) [Compound 84, 6-[2-cyano-3-[[ethyl(methyl)sulfamoyl]amino]-6-fluoro-phenoxy]-3-[7-[4-[3-(2,4-dioxohexahydropyrimidin-1-yl)-5-fluoro-1-methyl-indazol-6-yl]-2-fluoro-cyclohexyl]-7-azaspiro[3.5]nonan-2-yl]-4-oxo-quinazoline]	< 1000	< 1000	–	–	–	1000 to 10000	** (<90% and >50%)	–	HiBiT-Degradation A375.10 BRAF 2 hours Emax (BRAF V600E): *** (<=50%); DC50 (BRAF V600E; A375.10 cells, BRAF V600E, 6 hours, inflection point, read-out: HiBiT-Degradation A375.10 BRAF 6 hours IP): < 1000 nM; DC50 (BRAF V600E; A375.10 cells, BRAF V600E, 6 hours, read-out: HiBiT-Degradation A375.10 BRAF 6 hours DC50): < 1000 nM; HiBiT-Degradation A375.10 BRAF 6 hours Emax (BRAF V600E; A375.10 cells, BRAF V600E, 6 hours, residual protein remaining): *** (<=50%); HiBiT-Degradation A375.10 BRAF 24 hours Emax (BRAF V600E; [7]): *** (<=50%); DC50 (BRAF V600E; [5]): < 1000 nM; DC50 (BRAF V600E; [6]): < 1000 nM
CCN(C)S(=O)(=O)Nc1ccc(F)c(Oc2ccc3ncn([C@H]4COC5(C4)CN(C4CCC(c6cc7c(cc6F)c(N6CCC(=O)NC6=O)nn7C)CC4)C5)c(=O)c3c2)c1C#N (single isomer, unassigned) [Compound 236]	< 1000	< 1000	–	–	–	1000 to 10000	** (<90% and >50%)	*** (<=50%)	–
